Measured values reported in ChEMBL document CHEMBL4699534, “Optimizing PEG-Extended Apelin Analogues as Cardioprotective Drug Leads: Importance of the KFRR Motif and Aromatic Head Group for Improved Physiological Activity” (J Med Chem, 2020).
Non-standard residues stand in square brackets, D forms with d. Residues, ends and D or L forms follow the SMILES beside them. *: point of attachment. CH3O(CH2CH2O)7C2H4CO = COCCOCCOCCOCCOCCOCCOCCOCCC(=O)*; Phe(4-Br) = N[C@@H](Cc1ccc(Br)cc1)C(=O)O; PEG7 = NCCOCCOCCOCCOCCOCCOCCOCCC(=O)O; NMeR = CN[C@@H](CCCNC(=N)N)C(=O)O; NMeL = CN[C@@H](CC(C)C)C(=O)O; PEG4 = NCCOCCOCCOCCOCCC(=O)O; Nle = CCCC[C@H](N)C(=O)O; X1 = COCCOCCOCCOCCC(=O)*; Cbz = O=C(OCc1ccccc1)*; Aib = CC(C)(N)C(=O)O

Tests used:
Mus musculus = test: Cardioprotective activity in C57BL/6 mouse assessed as reduction in mean arterial blood pressure at 1.4 uM/kg, iv measured after 15 mins relative to control; assay type: functional; conditions: 0.25 h
Apelin receptor [1] = target: T1, Apelin receptor (Homo sapiens, UniProt P35414); test: Activation of APJ receptor (unknown origin) expressed in Chem-5 cells assessed as stimulation of Ca2+ mobilization by Calcium 6-GF dye based fluorescence based assay; assay type: functional, cell-based
T1 sequence (P35414 whole entry): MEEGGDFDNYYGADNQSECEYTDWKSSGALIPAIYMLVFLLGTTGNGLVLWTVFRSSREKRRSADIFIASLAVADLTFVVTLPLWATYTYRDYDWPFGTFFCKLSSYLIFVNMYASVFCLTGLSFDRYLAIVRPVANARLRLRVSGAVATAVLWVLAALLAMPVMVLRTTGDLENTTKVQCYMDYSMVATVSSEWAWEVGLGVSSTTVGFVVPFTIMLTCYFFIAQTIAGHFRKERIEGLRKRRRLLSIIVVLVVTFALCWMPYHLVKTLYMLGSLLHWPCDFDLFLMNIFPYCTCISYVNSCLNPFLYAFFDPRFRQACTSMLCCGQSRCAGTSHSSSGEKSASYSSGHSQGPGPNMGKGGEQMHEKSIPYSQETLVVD

Apelin receptor [2] = target: T2, Apelin receptor (Rattus norvegicus, UniProt Q9JHG3); test: Displacement of [125I]-pyr-1-apelin-13 from EGFP-tagged wild-type rat apelin receptor expressed in CHO cell membranes by gamma counting method; design: species or system Cell membrane
T2 sequence (Q9JHG3 whole entry): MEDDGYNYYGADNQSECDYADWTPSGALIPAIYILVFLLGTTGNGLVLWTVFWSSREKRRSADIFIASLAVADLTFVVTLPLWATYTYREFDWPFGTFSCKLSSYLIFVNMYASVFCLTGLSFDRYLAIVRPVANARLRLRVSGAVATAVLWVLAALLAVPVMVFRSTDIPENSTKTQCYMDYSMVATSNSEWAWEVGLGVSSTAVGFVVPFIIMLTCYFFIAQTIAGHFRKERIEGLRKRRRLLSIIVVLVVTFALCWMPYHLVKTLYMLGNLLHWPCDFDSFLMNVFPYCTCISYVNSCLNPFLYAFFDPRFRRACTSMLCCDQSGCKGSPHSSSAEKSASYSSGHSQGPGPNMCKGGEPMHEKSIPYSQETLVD

[3] = Half life in human plasma at 400 uM by HPLC analysis; assay type: ADME, cell-free
[4] = Protein binding in 55% mouse plasma at 100 uM incubated for 3 hrs by LC/MS detection based equilibrium dialysis; assay type: ADME, cell-free; conditions: 55% plasma, read-out: PPB (converted)
[5] = Protein binding in 55% human plasma at 100 uM incubated for 3 hrs by LC/MS detection based equilibrium dialysis; assay type: ADME, cell-free; conditions: 55% plasma, read-out: PPB (converted)
[6] = Lipophilicity, log D of the compound in pH 7.4 PBS by LC/MS detection based shake flask assay; assay type: physicochemical
Heart [7] = test: Cardioprotective activity in mouse Langendorff heart perfusion and ischemia-reperfusion injury model assessed as left ventricle developed pressure at 1 uM dosed at start of reperfusion for 10 mins; assay type: functional
[8] = Half life in mouse plasma at 400 uM by HPLC analysis; assay type: ADME, cell-free
Heart [9] = test: Cardioprotective activity in mouse Langendorff heart perfusion and ischemia-reperfusion injury model assessed as maximum derivative of change in systolic blood pressure over time at 1 uM dosed at start of reperfusion for 10 mins; assay type: functional

Row | SMILES | EC50 (Apelin receptor [1]) [nM] | IC50 (Apelin receptor [2]) [nM] | half-life at 400 µM [3] [h] | fraction unbound at 3 h, 100 µM [4] | fraction unbound at 3 h, 100 µM [5] | logD [6] | half-life at 400 µM [8] [h] | Activity (Mus musculus) [mmHg] | Activity (Heart [7]) [mmHg] | dP/dt max (Heart [9]) [mmHg/s]
1 | CCCC[C@H](NC(=O)[C@@H]1CCCN1C(=O)CNC(=O)[C@H](CCCCN)NC(=O)[C@H](Cc1c[nH]cn1)NC(=O)[C@H](CO)NC(=O)[C@H](CC(C)C)N(C)C(=O)[C@H](CCCNC(=N)N)NC(=O)[C@@H]1CCCN1C(=O)[C@H](CCCNC(=N)N)NC(=O)[C@H](CCC(N)=O)NC(=O)[C@H](CCCNC(=N)N)N(C)C(=O)[C@H](CCCNC(=N)N)NC(=O)[C@H](Cc1ccccc1)NC(=O)[C@@H](N)CCCCN)C(=O)NC(C)(C)C(=O)N[C@@H](Cc1ccc(Br)cc1)C(=O)O (H-KFR[NMeR]QRPR[NMeL]SHKGP[Nle][Aib][Phe(4-Br)]-OH) | 3.47 | 1.51 | 5.2 | – | – | – | – | 14 | – | –
2 | CCCC[C@H](NC(=O)[C@@H]1CCCN1C(=O)CNC(=O)[C@H](CCCCN)NC(=O)[C@H](Cc1c[nH]cn1)NC(=O)[C@H](CO)NC(=O)[C@H](CC(C)C)N(C)C(=O)[C@H](CCCNC(=N)N)NC(=O)[C@@H]1CCCN1C(=O)[C@H](CCCNC(=N)N)NC(=O)[C@H](CCC(N)=O)NC(=O)CCOCCOCCOCCOCCOCCOCCNC(=O)OCC1c2ccccc2-c2ccccc21)C(=O)NC(C)(C)C(=O)N[C@@H](Cc1ccc(Br)cc1)C(=O)O | 49 | 3.02 | 6.9 | – | – | – | – | 9 | – | –
3 | CCCC[C@H](NC(=O)[C@@H]1CCCN1C(=O)CNC(=O)[C@H](CCCCN)NC(=O)[C@H](Cc1c[nH]cn1)NC(=O)[C@H](CO)NC(=O)[C@H](CC(C)C)N(C)C(=O)[C@H](CCCNC(=N)N)NC(=O)[C@@H]1CCCN1C(=O)[C@H](CCCNC(=N)N)NC(=O)[C@H](CCC(N)=O)NC(=O)[C@H](CCCNC(=N)N)NC(=O)[C@H](CCCNC(=N)N)NC(=O)[C@H](Cc1ccccc1)NC(=O)[C@H](CCCCN)NC(=O)CCOCCOCCOCCOCCOCCOCCOCCNC(=O)OCc1ccccc1)C(=O)NC(C)(C)C(=O)N[C@@H](Cc1ccc(Br)cc1)C(=O)O ({Cbz-PEG7}-KFRRQRPR[NMeL]SHKGP[Nle][Aib][Phe(4-Br)]-OH) | 6.17 | 1.91 | 18.2 | 0.17 | 0.15 | -1.54 | 2.9 | 43 | 119 | 2600
4 | CSCC[C@H](NC(=O)[C@@H]1CCCN1C(=O)CNC(=O)[C@H](CCCCN)NC(=O)[C@H](Cc1c[nH]cn1)NC(=O)[C@H](CO)NC(=O)[C@H](CC(C)C)NC(=O)[C@H](CCCNC(=N)N)NC(=O)[C@@H]1CCCN1C(=O)[C@H](CCCNC(=N)N)NC(=O)[C@H](CCC(N)=O)NC(=O)[C@H](CCCNC(=N)N)NC(=O)[C@H](CCCNC(=N)N)NC(=O)[C@H](Cc1ccccc1)NC(=O)[C@@H](N)CCCCN)C(=O)N1CCCC1C(=O)N[C@@H](Cc1ccccc1)C(=O)O (some centres undefined) | – | 0.0501 | 0.02 | 0.49 | 0.43 | -2.57 | 0.03 | 17 | 30 | 1020
5 | CCCC[C@H](NC(=O)[C@@H]1CCCN1C(=O)CNC(=O)[C@H](CCCCN)NC(=O)[C@H](Cc1c[nH]cn1)NC(=O)[C@H](CO)NC(=O)[C@H](CC(C)C)N(C)C(=O)[C@H](CCCNC(=N)N)NC(=O)[C@@H]1CCCN1C(=O)[C@H](CCCNC(=N)N)NC(=O)[C@H](CCC(N)=O)NC(=O)[C@H](CCCNC(=N)N)NC(=O)[C@H](CCCNC(=N)N)NC(=O)[C@H](Cc1ccccc1)NC(=O)[C@H](CCCCN)NC(=O)CCOCCOCCOCCOCCOCCOCCOCCNC(=O)[C@@H](N)Cc1ccccc1)C(=O)NC(C)(C)C(=O)N[C@@H](Cc1ccc(Br)cc1)C(=O)O (H-F[PEG7]KFRRQRPR[NMeL]SHKGP[Nle][Aib][Phe(4-Br)]-OH) | 25.7 | 1.7 | 6.4 | – | – | – | – | 24 | – | –

More lines, main results first:

Row | EC50 (Apelin receptor [1]) [nM] | IC50 (Apelin receptor [2]) [nM] | half-life at 400 µM [3] [h] | fraction unbound at 3 h, 100 µM [4] | fraction unbound at 3 h, 100 µM [5] | logD [6] | half-life at 400 µM [8] [h] | SMILES | Activity (Mus musculus) [mmHg] | Activity (Heart [7]) [mmHg] | dP/dt max (Heart [9]) [mmHg/s]
6 | 2.88 | 1.7 | 3 | 0.31 | 0.21 | -1.82 | – | CCCC[C@H](NC(=O)[C@@H]1CCCN1C(=O)CNC(=O)[C@H](CCCCN)NC(=O)[C@H](Cc1c[nH]cn1)NC(=O)[C@H](CO)NC(=O)[C@H](CC(C)C)N(C)C(=O)[C@H](CCCNC(=N)N)NC(=O)[C@@H]1CCCN1C(=O)[C@H](CCCNC(=N)N)NC(=O)[C@H](CCC(N)=O)NC(=O)[C@H](CCCNC(=N)N)NC(=O)[C@H](CCCNC(=N)N)NC(=O)[C@H](Cc1ccccc1)NC(=O)[C@H](CCCCN)NC(=O)CCOCCOCCOCCOCCOCCOCCOCCN)C(=O)NC(C)(C)C(=O)N[C@@H](Cc1ccc(Br)cc1)C(=O)O (H-[PEG7]KFRRQRPR[NMeL]SHKGP[Nle][Aib][Phe(4-Br)]-OH) | 35 | – | –
7 | 7.76 | 6.31 | 2 | – | – | – | – | CCCC[C@H](NC(=O)[C@@H]1CCCN1C(=O)CNC(=O)[C@H](CCCCN)NC(=O)[C@H](Cc1c[nH]cn1)NC(=O)[C@H](CO)NC(=O)[C@H](CC(C)C)N(C)C(=O)[C@H](CCCNC(=N)N)NC(=O)[C@@H]1CCCN1C(=O)[C@H](CCCNC(=N)N)NC(=O)[C@H](CCC(N)=O)NC(=O)[C@H](CCCNC(=N)N)NC(=O)[C@H](CCCNC(=N)N)NC(=O)[C@H](Cc1ccccc1)NC(=O)[C@H](CCCCN)NC(=O)CCOCCOCCOCCOCCN)C(=O)NC(C)(C)C(=O)N[C@@H](Cc1ccc(Br)cc1)C(=O)O (H-[PEG4]KFRRQRPR[NMeL]SHKGP[Nle][Aib][Phe(4-Br)]-OH) | 24 | – | –
8 | 53.7 | 3.31 | 2.8 | – | – | – | – | CCCC[C@H](NC(=O)[C@@H]1CCCN1C(=O)CNC(=O)[C@H](CCCCN)NC(=O)[C@H](Cc1c[nH]cn1)NC(=O)[C@H](CO)NC(=O)[C@H](CC(C)C)N(C)C(=O)[C@H](CCCNC(=N)N)NC(=O)[C@@H]1CCCN1C(=O)[C@H](CCCNC(=N)N)NC(=O)[C@H](CCC(N)=O)NC(=O)[C@H](CCCNC(=N)N)NC(=O)[C@H](CCCNC(=N)N)NC(=O)[C@H](Cc1ccccc1)NC(=O)[C@H](CCCCN)NC(=O)CCOCCOCCOCCOC)C(=O)NC(C)(C)C(=O)N[C@@H](Cc1ccc(Br)cc1)C(=O)O (X1-KFRRQRPR[NMeL]SHKGP[Nle][Aib][Phe(4-Br)]-OH) | 32 | – | –
9 | 8.13 | 1.7 | 0.7 | – | – | – | – | CCCC[C@H](NC(=O)[C@@H]1CCCN1C(=O)CNC(=O)[C@H](CCCCN)NC(=O)[C@H](Cc1c[nH]cn1)NC(=O)[C@H](CO)NC(=O)[C@H](CC(C)C)N(C)C(=O)[C@H](CCCNC(=N)N)NC(=O)[C@@H]1CCCN1C(=O)[C@H](CCCNC(=N)N)NC(=O)[C@H](CCC(N)=O)NC(=O)[C@H](CCCNC(=N)N)NC(=O)[C@H](CCCNC(=N)N)NC(=O)[C@H](Cc1ccccc1)NC(=O)[C@H](CCCCN)NC(=O)CCOCCOCCOCCOCCOCCOCCOCCOC)C(=O)NC(C)(C)C(=O)N[C@@H](Cc1ccc(Br)cc1)C(=O)O ({CH3O(CH2CH2O)7C2H4CO}-KFRRQRPR[NMeL]SHKGP[Nle][Aib][Phe(4-Br)]-OH) | 30 | – | –
10 | – | 0.603 | 1.2 | 0.45 | 0.48 | -2.01 | 0.9 | CCCC[C@H](NC(=O)[C@@H]1CCCN1C(=O)CNC(=O)[C@H](CCCCN)NC(=O)[C@H](Cc1c[nH]cn1)NC(=O)[C@H](CO)NC(=O)[C@H](CC(C)C)N(C)C(=O)[C@H](CCCNC(=N)N)NC(=O)[C@@H]1CCCN1C(=O)[C@H](CCCNC(=N)N)NC(=O)[C@H](CCC(N)=O)NC(=O)[C@H](CCCNC(=N)N)NC(=O)[C@H](CCCNC(=N)N)NC(=O)[C@H](Cc1ccccc1)NC(=O)[C@@H](N)CCCCN)C(=O)NC(C)(C)C(=O)N[C@@H](Cc1ccc(Br)cc1)C(=O)O (H-KFRRQRPR[NMeL]SHKGP[Nle][Aib][Phe(4-Br)]-OH) | 30 | 25 | 778
